Inhibition data for 20 compounds are collected here from patent US8580965B2, “Substituted sulfonamide compounds” (Gruenenthal GmbH, priority 2006, dated 2013).

This test deals with T1, human B1R receptor (bradykinin 1 receptor) (Homo sapiens, UniProt P46663).
T1 construct: host or cells: CHO K1 cells (hB1R cells)
T1 sequence (P46663 1-353): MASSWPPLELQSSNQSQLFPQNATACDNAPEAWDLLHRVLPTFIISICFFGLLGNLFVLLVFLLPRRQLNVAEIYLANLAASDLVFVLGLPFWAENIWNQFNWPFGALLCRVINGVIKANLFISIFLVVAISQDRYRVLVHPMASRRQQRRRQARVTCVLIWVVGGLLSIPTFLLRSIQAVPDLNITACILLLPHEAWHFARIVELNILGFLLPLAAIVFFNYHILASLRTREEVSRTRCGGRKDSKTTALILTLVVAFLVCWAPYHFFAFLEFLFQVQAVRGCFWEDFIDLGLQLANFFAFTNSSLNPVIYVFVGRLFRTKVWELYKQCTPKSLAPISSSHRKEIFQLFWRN
As to the kind of experiment: FLIPR Ca2+ assay (Fluo-4) on CHO K1 cells stably transfected with the human B1R gene; % activation and % inhibition at 10 μM. The settings on record: CHO-K1, test substance 10 μM; CHO K1 hB1R cells; Ca2+ inflow after 0.5 nM Lys-Des-Arg9-bradykinin; read-out: B1R antagonism, human [10 μM] % inhibition. The test is classed as cell-based. Here is the method:
The agonistic or antagonistic action of substances can be quantified on the bradykinin receptor 1 (B1R) of the species human and rat with ectopically expressing cell lines (CHO K1 cells) and with the aid of a Ca^2+-sensitive dye (Fluo-4) using a fluorescent imaging plate reader (FLIPR). The indication in % activation is based on the Ca^2+ signal after addition of Lys-Des-Arg^9-bradykinin (0.5 nM) or Des-Arg^9-bradykinin (100 nM). Antagonists result in a suppression of the Ca^2+ influx following administration of the agonist. The % inhibition in comparison with the maximum achievable inhibition is indicated.
Functional Investigation on the Bradykinin 1 Receptor (B1R)
The agonistic or antagonistic action of substances can be determined on the bradykinin 1 receptor (B1R) of the human and rat species with the following assay. According to this assay, the Ca^2+ inflow through the channel is quantified with the aid of a Ca^2+-sensitive dyes (Fluo-4 type, Molecular Probes Europe BV, Leiden, The Netherlands) in a fluorescent imaging plate reader (FLIPR, Molecular Devices, Sunnyvale, USA).
Chinese Hamster Ovary cells (CHO K1 cells) which are stably transfected with the human B1R gene (hB1R cells, Euroscreen s.a., Gosselies, Belgium) or the B1R gene of the rat (rB1R cells, Axxam, Milan, Italy) are used. For functional investigations, these cells are plated-out on black 96-well plates with a clear base (BD Biosciences, Heidelberg, Germany) in a density of 20,000-25,000 cells/well. Overnight, the cells are incubated at 37° C. and 5% CO2 in culture medium (hB1R cells: Nutrient Mixture Ham's F12, Gibco Invitrogen GmbH, Karlsruhe, Germany; rB1R cells: D-MEM/F12, Gibco Invitrogen, Karlsruhe, Germany) with 10 vol. % FBS (foetal bovine serum, Gibco Invitrogen GmbH, Karlsruhe, Germany). On the following day, the cells are loaded with 2.13 μM Fluo-4 (Molecular Probes Europe BV, Leiden, The Netherlands) in HBSS buffer (Hank's buffered saline solution, Gibco Invitrogen GmbH, Karlsruhe, Germany) […] (Sigma-Aldrich, Taufkirchen, Germany) and 10 mM HEPES (Sigma-Aldrich, Taufkirchen, Germany) for 60 min at 37° C. The plates are subsequently washed 2× with HBSS buffer, and HBSS buffer which additionally contains 0.1% BSA (bovine serum albumin; Sigma-Aldrich, Taufkirchen, Germany), 5.6 mM glucose and 0.05% gelatine (Merck KGaA, Darmstadt, Germany) is added. After a further incubation of 20 minutes at room temperature, the plates are inserted into the FLIPR for Ca^2+ measurement. The Ca^2+-dependent fluorescence is measured here before and after addition of substances (λex=488 nm, λem=540 nm). The quantification is effected by measurement of the highest fluorescence intensity (FC, fluorescence counts) over time.
The FLIPR protocol comprises 2 additions of substance. Test substances (10 μM) are first pipetted on to the cells and the Ca^2+ inflow is compared with the control (hB1R: Lys-Des-Arg^9-bradykinin 0.5 nM; rB1R: Des-Arg^9-bradykinin 100 nM). The value in % activation based on the Ca^2+ signal after addition of Lys-Des-Arg^9-bradykinin (0.5 nM) or Des-Arg^9-bradykinin (100 nM) is obtained therefrom. After incubation for 10 minutes, 0.5 nM Lys-Des-Arg^9-bradykinin (hB1R) or 100 nM Des-Arg^9-bradykinin (rB1R) are applied and the inflow of Ca^2+ is likewise determined. Antagonists lead to a suppression of the Ca^2+ inflow. % inhibition compared with the maximum inhibition which can be achieved is calculated. The compounds show a good activity on the human and on the rat receptor. The following data were determined by way of example: […]
A word on the inhibition: it is the relative decrease from the control value, in per cent. Take `O=C(COCC1CCCN1S(=O)(=O)c1ccc(Cl)c(Cl)c1)N1CCC(O)(c2ccccn2)CC1` (centres unmarked) [Example 36, 2-[1-(3,4-dichloro-phenylsulfonyl)-pyrrolidin-2-ylmethoxy]-1-(4′-hydroxy-3′,4′,5′,6′-tetrahydro-2′H-[2,4′]bipyridinyl-1′-yl)-ethanone]: the inhibition at 10 µM turned out to be 3.64%.
To `O=C(COC1CCN(S(=O)(=O)c2ccccc2)CC1)N1CCC(O)(c2cccnc2)CC1` [Example 46, 2-(1-phenylsulfonyl-piperidin-4-yloxy)-1-(4′-hydroxy-3′,4′,5′,6′-tetrahydro-2′H-[3,4′]bipyridinyl-1′-yl)-ethanone] belongs -3.51%; to `O=C(COCC1CCCCN1S(=O)(=O)c1ccc(Cl)c(Cl)c1)N1CCC(O)(c2ccccn2)CC1` (centres unmarked) [Example 25, 2-[1-(3,4-dichloro-phenylsulfonyl)-piperidin-2-ylmethoxy]-1-(4′-hydroxy-3′,4′,5′,6′-tetrahydro-2′H-[2,4′]bipyridinyl-1′-yl)-ethanone], 10%; to `O=C(COC1CCN(S(=O)(=O)c2ccccc2)CC1)N1CCC(O)(Cc2ccccc2)CC1` [Example 37, 2-(1-phenylsulfonyl-piperidin-4-yloxy)-1-(4-benzyl-4-hydroxy-piperidin-1-yl)-ethanone], 3.4%.
For the compound `O=C(COCC1CCCCN1S(=O)(=O)c1ccc(Cl)c(Cl)c1)N1CCC(O)(c2cccnc2)CC1` (centres unmarked) [Example 12, 2-[1-(3,4-dichloro-phenylsulfonyl)-piperidin-2-ylmethoxy]-1-(4′-hydroxy-3′,4′,5′,6′-tetrahydro-2′H-[3,4′]bipyridinyl-1′-yl)-ethanone], the inhibition at 10 µM turned out to be 55.1%.
Regarding `COc1cc(C)c(S(=O)(=O)N2CCN(CCOCC(=O)N3CCC(O)(c4cccnc4)CC3)CC2)c(C)c1C` [Example 47, 1-(4′-hydroxy-3′,4′,5′,6′-tetrahydro-2′H-[3,4′]bipyridinyl-1′-yl)-2-{2-[4-(4-methoxy-2,3,6-trimethyl-phenylsulfonyl)-piperazin-1-yl]-ethoxy}-ethanone], the inhibition at 10 µM is -3.95%.
On to `COc1cc(C)c(S(=O)(=O)N2CCC(OCCC(=O)N3CCC(O)(c4ccc(Br)cc4)CC3)C2)c(C)c1` (centres unmarked) [Example 187, 1-(4-(4-bromophenyl)-4-hydroxypiperidin-1-yl)-3-(1-(4-methoxy-2,6-dimethylphenylsulfonyl)pyrrolidin-3-yloxy)propan-1-one], for which the inhibition at 10 µM worked out at 99.9%.
As to `COc1cc(C)c(S(=O)(=O)N2CCCCC2COCCC(=O)N2CCC(O)(c3ccccc3)CC2)c(C)c1` (centres unmarked) [Example 183, 1-(4-hydroxy-4-phenylpiperidin-1-yl)-3-((1-(4-methoxy-2,6-dimethylphenylsulfonyl)piperidin-2-yl)methoxy)propan-1-one], the inhibition at 10 µM is 68.2%.
Regarding `CN(CCCC(=O)N1CCC(O)(c2cccnc2)CC1)S(=O)(=O)c1ccc(Cl)cc1Cl` [Example 116, 2,4-dichloro-N-(4-(4-hydroxy-4-(pyridin-3-yl)piperidin-1-yl)-4-oxobutyl)-N-methylphenylsulfonamide], the inhibition at 10 µM is 91.2%.
Regarding `COc1cc(C)c(S(=O)(=O)N2CCCCC2COCCC(=O)N2CCC(O)(c3ccc(Cl)c(C(F)(F)F)c3)CC2)c(C)c1` (centres unmarked) [Example 180, 1-(4-(4-chloro-3-(trifluoromethyl)phenyl)-4-hydroxypiperidin-1-yl)-3-((1-(4-methoxy-2,6-dimethylphenylsulfonyl)piperidin-2-yl)methoxy)propan-1-one], the inhibition at 10 µM is 39.9%.
With `COc1cc(C)c(S(=O)(=O)N2CCC(CCOCC(=O)N3CCC(O)(Cc4ccccc4)CC3)CC2)c(C)c1C` [Example 14, 1-(4-benzyl-4-hydroxy-piperidin-1-yl)-2-{2-[1-(4-methoxy-2,3,6-trimethyl-phenylsulfonyl)-piperidin-4-yl]-ethoxy}-ethanone], the inhibition at 10 µM is 43.2%.
In the case of `COc1cc(C)c(S(=O)(=O)N2CCC(OCCC(=O)N3CCC(O)(c4cccc(C(F)(F)F)c4)CC3)C2)c(C)c1` (centres unmarked) [Example 190, 1-(4-hydroxy-4-(3-(trifluoromethyl)phenyl)piperidin-1-yl)-3-(1-(4-methoxy-2,6-dimethylphenylsulfonyl)pyrrolidin-3-yloxy)propan-1-one] it was 103%; in that of `COc1cc(C)c(S(=O)(=O)N2CCCC(OCCC(=O)N3CCC(O)(c4ccc(Br)cc4)CC3)C2)c(C)c1` (centres unmarked) [Example 185, 1-(4-(4-bromophenyl)-4-hydroxypiperidin-1-yl)-3-(1-(4-methoxy-2,6-dimethylphenylsulfonyl)piperidin-3-yloxy)propan-1-one], 54.6%.
Regarding `CN(CCOCC(=O)N1CCC(O)(Cc2ccccc2)CC1)S(=O)(=O)c1cccc(C(F)(F)F)c1` [Example 38, N-{2-[2-(4-benzyl-4-hydroxy-piperidin-1-yl)-2-oxo-ethoxy]-ethyl}-N-methyl-3-trifluoromethyl-phenylsulfonamide], the inhibition at 10 µM is 3.28%.
Consider `O=C(COC1CCN(S(=O)(=O)c2ccccc2)CC1)N1CCC(O)(c2ccccn2)CC1` [Example 54, 2-(1-phenylsulfonyl-piperidin-4-yloxy)-1-(4′-hydroxy-3′,4′,5′,6′-tetrahydro-2′H-[2,4′]bipyridinyl-1′-yl)-ethanone], for which the inhibition at 10 µM is -13.1%.
Take `COc1cc(C)c(S(=O)(=O)N2CCCC(OCC(=O)N3CCC(O)(c4ccccn4)CC3)C2)c(C)c1C` (centres unmarked) [Example 55, 1-(4′-hydroxy-3′,4′,5′,6′-tetrahydro-2′H-[2,4′]bipyridinyl-1′-yl)-2-[1-(4-methoxy-2,3,6-trimethyl-phenylsulfonyl)-piperidin-3-yloxy]-ethanone]: the inhibition at 10 µM is -13.2%.
With `O=C(COC1CCCN(S(=O)(=O)c2ccccc2)C1)N1CCC(O)(Cc2ccccc2)CC1` (centres unmarked) [Example 27, 2-(1-phenylsulfonyl-piperidin-3-yloxy)-1-(4-benzyl-4-hydroxy-piperidin-1-yl)-ethanone], the inhibition at 10 µM amounted to 9.32%.
Consider `COc1cc(C)c(S(=O)(=O)N2CCCC(OCCC(=O)N3CCC(O)(c4ccc(Cl)cc4)CC3)C2)c(C)c1` (centres unmarked) [Example 184, 1-(4-(4-chlorophenyl)-4-hydroxypiperidin-1-yl)-3-(1-(4-methoxy-2,6-dimethylphenylsulfonyl)piperidin-3-yloxy)propan-1-one], for which the inhibition at 10 µM was 56.1%.
Regarding `COc1cc(C)c(S(=O)(=O)N2CCCCC2COCCC(=O)N2CCC(O)(c3ccc(Cl)cc3)CC2)c(C)c1` (centres unmarked) [Example 181, 1-(4-(4-chlorophenyl)-4-hydroxypiperidin-1-yl)-3-((1-(4-methoxy-2,6-dimethylphenylsulfonyl)piperidin-2-yl)methoxy)propan-1-one], the inhibition at 10 µM came to 75.4%.
In the case of `COc1cc(C)c(S(=O)(=O)N2CCN(CCOCC(=O)N3CCC(O)(c4ccccn4)CC3)CC2)c(C)c1C` [Example 48, 1-(4′-hydroxy-3′,4′,5′,6′-tetrahydro-2′H-[2,4′]bipyridinyl-1′-yl)-2-{2-[4-(4-methoxy-2,3,6-trimethyl-phenylsulfonyl)-piperazin-1-yl]-ethoxy}-ethanone], the inhibition at 10 µM was -4.32%.
